Where two headings read alike, the source gives them in different places.
Target: hT2R8 (Homo sapiens (Human), UniProt Q9NYW2)
Test: hT2R8 antagonist high-throughput FLIPR assay, stable cell line with G16g44, agonist andrographolide
Type: cell-based
Outline: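 HEK293 cells stably co-expressing hT2R8 and chimeric G16g44, read on FLIPR. Test compounds added together with andrographolide (200 μM), which drives the receptor to 70–80% of maximal activity; antagonism seen as reduced agonist response.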

[1] = table after Example 10-97, read-out: hT2R8 IC50
[2] = read-out: IC50 on hT2R8 bitter receptor

Sequence of hT2R8 (Q9NYW2 whole entry): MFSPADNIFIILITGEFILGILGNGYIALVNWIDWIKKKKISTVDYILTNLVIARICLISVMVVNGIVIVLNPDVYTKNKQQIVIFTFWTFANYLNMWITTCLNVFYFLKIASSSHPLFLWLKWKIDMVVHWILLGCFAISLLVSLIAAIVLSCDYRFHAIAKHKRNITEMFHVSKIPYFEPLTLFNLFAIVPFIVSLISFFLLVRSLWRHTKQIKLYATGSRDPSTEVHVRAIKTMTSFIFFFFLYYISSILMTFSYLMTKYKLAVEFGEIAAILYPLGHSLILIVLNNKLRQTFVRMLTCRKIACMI

SMILES	IC50 [1] [µM]	IC50 (unit uM, read-out: IC50 on hT2R08 bitter receptor) [µM]	IC50 [2] [µM]
Cc1noc(C)c1Cn1cc(N2C(=O)NC(C)C2=O)cn1 (stereo not shown) [Example 10-41, 3-(1-((3,5-dimethylisoxazol-4-yl)methyl)-1H-pyrazol-4-yl)-5-methylimidazolidine-2,4-dione]	1.28	–	1.3
Cc1noc(C)c1Cn1cc(N2C(=O)C(Cc3ccccc3)N(C)C2=O)cn1 (stereo not shown) [Example 10-42, 5-benzyl-3-(1-((3,5-dimethylisoxazol-4-yl)methyl)-1H-pyrazol-4-yl)-1-methylimidazolidine-2,4-dione]	0.017	–	0.15
Cc1noc(C)c1Cn1cc(N2C(=O)NC(CCc3ccccc3)C2=O)cn1 (stereo not shown) [Example 10-45, 3-(1-((3,5-dimethylisoxazol-4-yl)methyl)-1H-pyrazol-4-yl)-5-phenethylimidazolidine-2,4-dione]	0.793	–	0.22
Cc1noc(C)c1Cn1cc(N2C(=O)NC(CCCc3ccccc3)C2=O)cn1 (stereo not shown) [Example 10-46, 3-(1-((3,5-dimethylisoxazol-4-yl)methyl)-1H-pyrazol-4-yl)-5-(3-phenylpropyl)imidazolidine-2,4-dione]	0.484	–	0.17
Cc1noc(C)c1Cn1cc(N2C(=O)CN(C)C2=O)cn1 [Example 10-51, 3-(1-((3,5-dimethylisoxazol-4-yl)methyl)-1H-pyrazol-4-yl)-1-methylimidazolidine-2,4-dione]	0.966	–	0.58
Cc1noc(C)c1Cn1cc(N2C(=O)N(C)C(C)(C)C2=O)cn1 [Example 10-52, 3-(1-((3,5-dimethylisoxazol-4-yl)methyl)-1H-pyrazol-4-yl)-1,5,5-trimethylimidazolidine-2,4-dione]	0.81	–	0.8
Cc1noc(C)c1Cn1cc(N2C(=O)CN(Cc3ccccc3)C2=O)cn1 [Example 10-53, 1-benzyl-3-(1-((3,5-dimethylisoxazol-4-yl)methyl)-1H-pyrazol-4-yl)imidazolidine-2,4-dione]	0.257	–	0.09
Cc1noc(C)c1Cn1cc(N2C(=O)CN(Cc3ccccn3)C2=O)cn1 [Example 10-54, 3-(1-((3,5-dimethylisoxazol-4-yl)methyl)-1H-pyrazol-4-yl)-1-(pyridin-2-ylmethyl)imidazolidine-2,4-dione]	0.609	–	0.68
Cc1noc(C)c1CN1CC(=O)N(c2cnn(Cc3c(C)noc3C)c2)C1=O [Example 10-55, 1-((3,5-dimethylisoxazol-4-yl)methyl)-3-(1-((3,5-dimethylisoxazol-4-yl)methyl)-1H-pyrazol-4-yl)imidazolidine-2,4-dione]	0.479	–	0.04
Cc1noc(C)c1Cn1cc(N2C(=O)NC(CC3CCCCC3)C2=O)cn1 (stereo not shown) [Example 10-57, 5-(cyclohexylmethyl)-3-(1-((3,5-dimethylisoxazol-4-yl)methyl)-1H-pyrazol-4-yl)imidazolidine-2,4-dione]	0.962	–	0.96
Cc1noc(C)c1Cn1cc(N2C(=O)NC(CC3CCCC3)C2=O)cn1 (stereo not shown) [Example 10-58, 5-(cyclopentylmethyl)-3-(1-((3,5-dimethylisoxazol-4-yl)methyl)-1H-pyrazol-4-yl)imidazolidine-2,4-dione]	0.316	–	0.31
Cc1noc(C)c1Cn1cc(N2C(=O)NC(CC(C)C)C2=O)cn1 (stereo not shown) [Example 10-61, 3-(1-((3,5-dimethylisoxazol-4-yl)methyl)-1H-pyrazol-4-yl)-5-isobutylimidazolidine-2,4-dione]	0.912	–	1
Cc1noc(C)c1Cn1cc(N2C(=O)NC(C(C)C)C2=O)cn1 (stereo not shown) [Example 10-62, 3-(1-((3,5-dimethylisoxazol-4-yl)methyl)-1H-pyrazol-4-yl)-5-isopropylimidazolidine-2,4-dione]	1.44	–	1.1
Cc1noc(C)c1Cn1cc(N2C(=O)N/C(=C\c3ccccc3)C2=O)cn1 [Example 10-63, (Z)-5-benzylidene-3-(1-((3,5-dimethylisoxazol-4-yl)methyl)-1H-pyrazol-4-yl)imidazolidine-2,4-dione]	–	–	0.34
Cc1noc(C)c1Cn1cc(-n2c(=O)n(C)n(CCc3ccc(F)cc3)c2=O)cn1 [Example 10-66, 4-(1-((3,5-dimethylisoxazol-4-yl)methyl)-1H-pyrazol-4-yl)-1-(4-fluorophenethyl)-2-methyl-1,2,4-triazolidine-3,5-dione]	0.012	–	0.01
Cc1noc(C)c1Cn1cc(-n2c(=O)n(Cc3ccccc3)n(Cc3ccccc3)c2=O)cn1 [Example 10-70, 1,2-dibenzyl-4-(1-((3,5-dimethylisoxazol-4-yl)methyl)-1H-pyrazol-4-yl)-1,2,4-triazolidine-3,5-dione]	1.8	–	0.8
Cc1noc(C)c1Cn1cc(N2C(=O)CN(CC3CCCO3)C2=O)cn1 (stereo not shown) [Example 10-73]	1.36	–	1.4
Cc1noc(C)c1Cn1cc(N2C(=O)CN(CC3CCCCC3)C2=O)cn1 [Example 10-74, 1-(cyclohexylmethyl)-3-(1-((3,5-dimethylisoxazol-4-yl)methyl)-1H-pyrazol-4-yl)imidazolidine-2,4-dione]	0.276	–	0.28

Other lines, results leading:

IC50 [1] [µM]	IC50 (unit uM, read-out: IC50 on hT2R08 bitter receptor) [µM]	IC50 [2] [µM]	SMILES
0.363	0.4	–	Cc1noc(C)c1Cn1cc(N2C(=O)CN(Cc3ccn(C)n3)C2=O)cn1 [Example 10-38, 3-(1-((3,5-dimethylisoxazol-4-yl)methyl)-1H-pyrazol-4-yl)-1-((1-methyl-1H-pyrazol-3-yl)methyl)imidazolidine-2,4-dione]
–	–	1.87	COc1cccc(C(=O)Nc2nnn(Cc3c(C)noc3C)n2)c1 [Example 10-39, N-(2-((3,5-dimethylisoxazol-4-yl)methyl)-2H-tetrazol-5-yl)-3-methoxybenzamide]
–	–	12.1	Cc1noc(C)c1Cn1cnc(NC(=O)c2ccc3c(c2)OCO3)c1 [Example 10-40, N-(1-((3,5-dimethylisoxazol-4-yl)methyl)-1H-imidazol-4-yl)benzo[d][1,3]dioxole-5-carboxamide]
0.02	–	0.02	Cc1noc(C)c1Cn1cc(N2C(=O)C(C)N(Cc3ccccc3)C2=O)cn1 (stereo not shown) [Example 10-43, 1-benzyl-3-(1-((3,5-dimethylisoxazol-4-yl)methyl)-1′-1-pyrazol-4-yl)-5-methylimidazolidine-2,4-dione]
0.766	–	0.76	Cc1noc(C)c1Cn1cc(N2C(=O)NC(COCc3ccccc3)C2=O)cn1 (stereo not shown) [Example 10-47, 5-(benzyloxymethyl)-3-(1-((3,5-dimethylisoxazol-4-yl)methyl)-1H-pyrazol-4-yl)imidazolidine-2,4-dione]
0.747	–	0.75	Cc1noc(C)c1Cn1cc(N2C(=O)NC(CC(=O)Nc3ccccc3)C2=O)cn1 (stereo not shown) [Example 10-48, 2-(1-(1-((3,5-dimethylisoxazol-4-yl)methyl)-1H-pyrazol-4-yl)-2,5-dioxoimidazolidin-4-yl)-N-phenylacetamide]
1.33	–	1.3	Cc1noc(C)c1Cn1cc(N2C(=O)NC(CC(=O)NCc3ccccc3)C2=O)cn1 (stereo not shown) [Example 10-49, N-benzyl-2-(1-(1-((3,5-dimethylisoxazol-4-yl)methyl)-1H-pyrazol-4-yl)-2,5-dioxoimidazolidin-4-yl)acetamide]
1.77	–	1.7	COc1cccc(CNC(=O)CC2NC(=O)N(c3cnn(Cc4c(C)noc4C)c3)C2=O)c1 (stereo not shown) [Example 10-50, 2-(1-(1-((3,5-dimethylisoxazol-4-yl)methyl)-1H-pyrazol-4-yl)-2,5-dioxoimidazolidin-4-yl)-N-(3-methoxybenzyl)acetamide]
0.131	–	0.13	COc1cccc(CC2NC(=O)N(c3cnn(Cc4c(C)noc4C)c3)C2=O)c1 (stereo not shown) [Example 10-56, 3-(1-((3,5-dimethylisoxazol-4-yl)methyl)-1H-pyrazol-4-yl)-5-(3-methoxybenzyl)imidazolidine-2,4-dione]
0.327	–	0.33	Cc1noc(C)c1Cn1cc(N2C(=O)NC(Cc3ccc(O)cc3)C2=O)cn1 (stereo not shown) [Example 10-59, 3-(1-((3,5-dimethylisoxazol-4-yl)methyl)-1H-pyrazol-4-yl)-5-(4-hydroxybenzyl)imidazolidine-2,4-dione]
0.513	–	0.51	Cc1noc(C)c1Cn1cc(N2C(=O)NC(Cc3ccc(O)c(O)c3)C2=O)cn1 (stereo not shown) [Example 10-60, 5-(3,4-dihydroxybenzyl)-3-(1-((3,5-dimethylisoxazol-4-yl)methyl)-1H-pyrazol-4-yl)imidazolidine-2,4-dione]
–	–	0.031	Cc1noc(C)c1Cn1cc(-n2c(=O)n(C)n(CCOc3ccccc3)c2=O)cn1 [Example 10-67, 4-(1-((3,5-dimethylisoxazol-4-yl)methyl)-1H-pyrazol-4-yl)-1-methyl-2-(2-phenoxyethyl)-1,2,4-triazolidine-3,5-dione]
0.707	–	0.6	Cc1noc(C)c1Cn1cc(-n2c(=O)n(C)n(C)c2=O)cn1 [Example 10-69, 4-(1-((3,5-dimethylisoxazol-4-yl)methyl)-1H-pyrazol-4-yl)-1,2-dimethyl-1,2,4-triazolidine-3,5-dione]
0.721	–	0.72	Cc1noc(C)c1Cn1cc(N2C(=O)CN(Cc3cccc(CO)n3)C2=O)cn1 [Example 10-71, 3-(1-((3,5-dimethylisoxazol-4-yl)methyl)-1H-pyrazol-4-yl)-1-((6-(hydroxymethyl)pyridin-2-yl)methyl)imidazolidine-2,4-dione]
0.999	–	1	COc1ccnc(CN2CC(=O)N(c3cnn(Cc4c(C)noc4C)c3)C2=O)c1OC [Example 10-72, 1-((3,4-dimethoxypyridin-2-yl)methyl)-3-(1-((3,5-dimethylisoxazol-4-yl)methyl)-1H-pyrazol-4-yl)imidazolidine-2,4-dione]
0.229	–	0.23	COc1cccc(CN2CC(=O)N(c3cnn(Cc4c(C)noc4C)c3)C2=O)n1 [Example 10-75, 3-(1-((3,5-dimethylisoxazol-4-yl)methyl)-1H-pyrazol-4-yl)-1-((6-methoxypyridin-2-yl)methyl)imidazolidine-2,4-dione]

— US9247759B2, “Identification of human T2R receptors that respond to bitter compounds that elicit the bitter taste in compositions, and the use thereof in assays to identify compounds that inhibit (block) bitter taste in compositions and use thereof” (SENOMYX, INC., priority 2007, dated 2016)
